Reference: PubChem BioAssay (NCI)
Several values for one entry are separate records, joined by “and”; a condition that tells them apart may be missing. Equal values may be shown once.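 Tested at 5 concentrations; 48 h exposure; 96-well plates; endpoints linearly interpolated, else capped at highest concentration. Abbreviation: GI50, concentration required for 50% inhibition of growth. TGI denotes the concentration required for complete inhibition of growth.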

How the values were obtained:
Experiment in all cases: NCI anticancer screen, dose series, 48 h
[1] = tested on: NCI-H522 lung
[2] = tested on: CCRF-CEM leukemia
[3] = tested on: ACHN renal
[4] = tested on: UACC-62 melanoma
[5] = tested on: OVCAR-4 ovarian
[6] = tested on: IGROV1 ovarian
[7] = tested on: SF-539 CNS
[8] = tested on: HCT-116 colon
[9] = tested on: CAKI-1 renal
[10] = tested on: SNB-75 CNS

Compound | TGI [1] | TGI [2] | TGI [3] | TGI [4] | TGI [5] | TGI [6] | TGI [7] [µM] | TGI [8] | TGI [9] [µM] | TGI [10] [µM] | GI50 [1] [nM] | GI50 [2] [µM] | GI50 [3] [µM] | GI50 [4] [µM] | GI50 [5] [µM] | GI50 [6] [µM] | GI50 [8] [µM] | GI50 [7] [nM] | GI50 [9] [nM] | GI50 [10] [nM]
Cc1cccc(C)c1NC(=O)/C(Cl)=C(/Cl)C(=O)O | 8.92 µM | 14.1 µM | 29.4 µM | 20.6 µM | 33.5 µM | 40.8 µM | 53.9 | 36.4 µM | 15.1 | 43.4 | – | – | – | – | – | – | – | – | – | –
COC(=O)/C=C(C)/C=C/c1cc(C(C)=O)c(C)o1 | > 100 µM | > 100 µM | > 100 µM | > 100 µM | > 100 µM | > 100 µM | > 100 | > 100 µM | > 100 | > 100 | – | – | – | – | – | – | – | – | – | –
O=C1/C(=C/c2ccc(O)c([N+](=O)[O-])c2)CCC/C1=C\c1ccc(O)c([N+](=O)[O-])c1 | 22.6 µM and 3.08 µM | 50 µM and 56.2 µM | 14.8 µM and 38.5 µM | 15.5 µM and 37.2 µM | 50 µM and > 100 µM | 17 µM and 28.5 µM | 50 | 18.7 µM and > 100 µM | 20.4 | 6.65 | 1490 | 14.9 | 20.4 | 14.1 | 4.34 | 15.2 | 26.8 | – | – | –
C[C@]12CC[C@H](O)CC1=CC[C@@H]1C2CC[C@]2(C)c3nn(-c4ccc(F)cc4)nc3CC12 (some centres not stated) | > 100 µM | > 100 µM | > 100 µM | > 100 µM | > 100 µM | > 100 µM | > 100 | > 100 µM | > 100 | 74.4 | – | – | – | – | – | – | – | – | – | –
COc1c(C)c2c(c(O)c1C/C=C(\C)CCC(=O)OCCN1CCOCC1)C(=O)OC2 | > 100 µM | > 100 µM | > 100 µM | > 100 µM | > 76.7 µM | > 100 µM | > 100 | > 100 µM | > 100 | > 24.9 | 300 | 0.187 | 0.458 | 0.354 | 0.576 | 0.27 | 0.131 | 375 | 299 | 475
COc1cc(Cl)cc(-c2nn(C(=O)NCCN3CCN(C)CC3)cc2-c2ccncc2)c1 | 53.6 µM | > 100 µM | > 100 µM | 20.3 µM | > 100 µM | > 100 µM | 22.6 | 31.3 µM | 25.3 | 9.65 | 20300 | 43 | 4.16 | 4.95 | 4.35 | 17.8 | 14.8 | 2840 | 4350 | 1750
O=C1CCCCCCCCCCC(=O)C2CCOCCOCCOCCC1Cc1cccc(n1)C2 | > 100 µM | > 100 µM | > 100 µM | > 100 µM | > 100 µM | > 100 µM | > 100 | > 100 µM | > 100 | > 100 | – | – | – | – | – | – | – | – | – | –
N#Cc1ccccc1NC(=O)/C(=N\NC(=O)c1ccncc1)C(c1cnc2ccc([N+](=O)[O-])cc2n1)[N+](=O)[O-] (configuration not stated) | > 100 µM | > 100 µM | > 100 µM | > 100 µM | > 100 µM | > 100 µM | > 100 | > 100 µM | > 100 | > 100 | – | – | – | – | – | – | – | – | – | –
